In ChEMBL document CHEMBL1133350, “Novel DMARDs on the basis of a new concept of dual cytokine regulation, TNF-alpha suppression and IL-10 augmentation” (Bioorg Med Chem Lett, 2000):

How the values were obtained:
Mus musculus [1] = assay: Inhibit tumor necrosis factor alpha production in LPS-stimulated mice after peroral administration of 10 mg/kg; assay type: functional; conditions: route oral
Mus musculus [2] = assay: The compound (10 mg/kg) administered perorally was tested for its ability to augment IL-10 in LPS-stimulated mice; assay type: functional
[3] = Partition coefficient (logP); conditions: octanol/water
Rattus norvegicus [4] = assay: The compound (10 mg/kg) was tested for its therapeutic effect in an adjuvant-induced arthritis rat; assay type: functional
Rattus norvegicus [5] = assay: The compound (30 mg/kg) was tested for its therapeutic effect in an adjuvant-induced arthritis rat; assay type: functional
[6] = Bioavailability of the compound in rats after administration of 30 mg/kg; assay type: ADME, organism-based; conditions: rat, in vivo, read-out: Bioavailabiility

Row | SMILES | inhibition in vivo at 10 mg/kg (Mus musculus [1]) | IL-10 level (% of control) (Mus musculus [2]) | logP [3] | Therapeutic effect (Rattus norvegicus [4]) | Therapeutic effect (Rattus norvegicus [5]) | bioavailability [6]
1 | CC(=O)NCc1ccc(CN2CCN(c3nccs3)CC2)cc1 | 85% | 1150% | 1.23 | 80% |  | 
2 | CC(=O)NC1(c2ccc(CN3CCN(c4nccs4)CC3)cc2)CC1 | 84% | 646% | 1.58 | 133% |  | 
3 | CC(=O)NC1(c2ccc(CN3CCN(c4ccccc4)CC3)cc2)CC1 | 90% | 712% | 1.9 |  |  | 
4 | CC(=O)NC(C)(C)c1ccc(CN2CCN(c3ncccn3)CC2)cc1 | 77% | 200% | 1.18 |  |  | 
5 | CC(=O)NC(C)(C)c1ccc(CN2CCN(c3nccs3)CC2)cc1 | 85% | 712% | 2.01 | 131% |  | 
6 | CC(=O)NCc1ccc(CN2CCN(c3cccc(F)n3)CC2)cc1 | 85% | 973% | 1.45 | 144% |  | 
7 | CC(=O)NCc1ccc(CN2CCN(c3ccccn3)CC2)cc1 | 88% | 642% | 0.88 | 62% |  | 
8 | CC(=O)NCc1ccc(CN2CCN(c3ccccc3)CC2)cc1 | 89% | 376% | 1.55 |  | 35% | 
9 | CC(=O)NC(C)(C)c1ccc(CN2CCN(c3cccc(F)n3)CC2)cc1 | 88% | 579% | 2.24 | 142% |  | 
10 | CC(=O)NCc1ccc(CN2CCN(c3ccncc3)CC2)cc1 | 40% | 198% | 0.51 |  |  | 
11 | CC(=O)NC(C)c1ccc(CN2CCN(c3ccccc3)CC2)cc1 (stereo unspecified) | 87% | 270% | 2.08 |  |  | 
12 | CC(=O)NC1(c2ccc(CN3CCN(c4ncccn4)CC3)cc2)CC1 | 88% | 419% | 0.75 | 163% |  | 76%
13 | CC(=O)NC(C)c1ccc(CN2CCN(c3cccc(F)n3)CC2)cc1 (stereo unspecified) | 82% | 404% | 1.99 | 173% |  | 
14 | CC(=O)NCc1ccc(CN2CCN(c3cnccn3)CC2)cc1 | 76% | 334% | -0.09 |  |  | 
15 | CC(=O)NCc1ccc(CN2CCN(c3ncccn3)CC2)cc1 | 82% | 713% | 0.4 | 46% |  | 
16 | CC(=O)NC1(c2ccc(CN3CCN(c4cccc(F)n4)CC3)cc2)CC1 | 84% | 454% | 1.8 | 55% |  | 
17 | CC(=O)NC(C)(C)c1ccc(CN2CCN(c3ccccc3)CC2)cc1 | 88% | 561% | 2.83 |  | 80% | 
18 | CC(=O)NCc1ccc(CN2CCN(c3ccc(F)cc3F)CC2)cc1 | 91% | 2293% |  |  | 173% | 
19 | CC(=O)NC(C)c1ccc(CN2CCN(c3nccs3)CC2)cc1 (stereo unspecified) | 84% | 621% | 1.76 | 101% |  | 
20 | CC(=O)NCc1ccc(CN2CCN(c3cccnc3)CC2)cc1 | 61% | 236% | 0.49 |  |  | 
21 | CCC(CC)(NC(C)=O)c1ccc(CN2CCN(c3ccccc3)CC2)cc1 | 81% | 321% | 3.35 |  |  | 
22 | CCC(NC(C)=O)c1ccc(CN2CCN(c3ccccc3)CC2)cc1 (stereo unspecified) | 82% | 222% | 2.59 |  |  | 
23 | CC(=O)NC(C)c1ccc(CN2CCN(c3ncccn3)CC2)cc1 (stereo unspecified) | 78% | 298% | 0.93 |  |  | 
24 | CC(=O)NCc1ccc(CN2CCN(c3nccn3C)CC2)cc1 | 62% | 747% | 0.67 |  |  | 
